Source: ChEMBL document CHEMBL4706623, “GPR52 Antagonist Reduces Huntingtin Levels and Ameliorates Huntington's Disease-Related Phenotypes” (J Med Chem, 2021)

Molecular target: G-protein coupled receptor 52 (Homo sapiens, UniProt Q9Y2T5)
Assay: Antagonist activity at GPR52 (unknown origin) expressed in HEK293 cells assessed as inhibition of WO459-induced cAMP accumulation preincubated for 15 mins followed by WO459 addition and measured after 30 mins by LANCE Ultra cAMP kit based microplate reader analysis
Type: functional, cell-based
Conditions: read-out: IC50

Sequence of G-protein coupled receptor 52 (Q9Y2T5 whole entry): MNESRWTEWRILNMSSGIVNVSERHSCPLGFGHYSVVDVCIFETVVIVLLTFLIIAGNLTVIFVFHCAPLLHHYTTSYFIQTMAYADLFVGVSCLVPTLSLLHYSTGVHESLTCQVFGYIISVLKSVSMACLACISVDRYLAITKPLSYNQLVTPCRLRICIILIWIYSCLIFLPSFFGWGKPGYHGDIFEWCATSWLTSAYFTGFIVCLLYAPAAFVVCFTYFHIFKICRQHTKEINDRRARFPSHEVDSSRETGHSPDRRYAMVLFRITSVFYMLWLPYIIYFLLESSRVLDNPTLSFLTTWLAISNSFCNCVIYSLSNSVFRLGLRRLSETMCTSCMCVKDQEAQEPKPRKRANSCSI

Row | IC50 | Compound
1 | 1.82 µM | O=C(/C=C/CCc1ccccc1)c1ccccn1
2 | 2.82 µM | Cc1cccc(C)c1C(=O)/C=C/CCc1ccccc1
3 | 5.45 µM | O=C(/C=C/CCc1ccccc1)CCc1ccccc1
4 | 3.29 µM | O=C(/C=C/CCc1ccccc1)c1cccc2ccccc12
5 | 3.87 µM | COc1ccc(C(=O)/C=C/CCc2ccccc2)cc1
6 | 1.76 µM | O=C(/C=C/CCc1ccccc1)c1ccccc1F
